In ChEMBL document CHEMBL2203133 (J Med Chem, 2012):
≈ marks a conversion by molar mass, not a printed value. Blank lines part the entries; values can stand above or below the molecule they belong to. Calls of active or inactive are those of the source. The calls are words filed in the database; no cut-off is given here.

Tests used:
[1] = Plasma concentration in BALB/c mouse at 10 mg/kg, po at 6 hrs; assay type: ADME, organism-based; design: dose 10 mg/kg, route oral
[2] = Plasma concentration in BALB/c mouse at 10 mg/kg, iv at 1 hr administered as bolus dose; assay type: ADME, organism-based; design: dose 10 mg/kg, route intravenous
[3] = Plasma concentration in BALB/c mouse at 10 mg/kg, po at 1 hr; assay type: ADME, organism-based; design: dose 10 mg/kg, route oral
[4] = target: Voltage-gated inwardly rectifying potassium channel KCNH2 (Homo sapiens, UniProt Q12809)
Chain of Voltage-gated inwardly rectifying potassium channel KCNH2 (Q12809 whole entry): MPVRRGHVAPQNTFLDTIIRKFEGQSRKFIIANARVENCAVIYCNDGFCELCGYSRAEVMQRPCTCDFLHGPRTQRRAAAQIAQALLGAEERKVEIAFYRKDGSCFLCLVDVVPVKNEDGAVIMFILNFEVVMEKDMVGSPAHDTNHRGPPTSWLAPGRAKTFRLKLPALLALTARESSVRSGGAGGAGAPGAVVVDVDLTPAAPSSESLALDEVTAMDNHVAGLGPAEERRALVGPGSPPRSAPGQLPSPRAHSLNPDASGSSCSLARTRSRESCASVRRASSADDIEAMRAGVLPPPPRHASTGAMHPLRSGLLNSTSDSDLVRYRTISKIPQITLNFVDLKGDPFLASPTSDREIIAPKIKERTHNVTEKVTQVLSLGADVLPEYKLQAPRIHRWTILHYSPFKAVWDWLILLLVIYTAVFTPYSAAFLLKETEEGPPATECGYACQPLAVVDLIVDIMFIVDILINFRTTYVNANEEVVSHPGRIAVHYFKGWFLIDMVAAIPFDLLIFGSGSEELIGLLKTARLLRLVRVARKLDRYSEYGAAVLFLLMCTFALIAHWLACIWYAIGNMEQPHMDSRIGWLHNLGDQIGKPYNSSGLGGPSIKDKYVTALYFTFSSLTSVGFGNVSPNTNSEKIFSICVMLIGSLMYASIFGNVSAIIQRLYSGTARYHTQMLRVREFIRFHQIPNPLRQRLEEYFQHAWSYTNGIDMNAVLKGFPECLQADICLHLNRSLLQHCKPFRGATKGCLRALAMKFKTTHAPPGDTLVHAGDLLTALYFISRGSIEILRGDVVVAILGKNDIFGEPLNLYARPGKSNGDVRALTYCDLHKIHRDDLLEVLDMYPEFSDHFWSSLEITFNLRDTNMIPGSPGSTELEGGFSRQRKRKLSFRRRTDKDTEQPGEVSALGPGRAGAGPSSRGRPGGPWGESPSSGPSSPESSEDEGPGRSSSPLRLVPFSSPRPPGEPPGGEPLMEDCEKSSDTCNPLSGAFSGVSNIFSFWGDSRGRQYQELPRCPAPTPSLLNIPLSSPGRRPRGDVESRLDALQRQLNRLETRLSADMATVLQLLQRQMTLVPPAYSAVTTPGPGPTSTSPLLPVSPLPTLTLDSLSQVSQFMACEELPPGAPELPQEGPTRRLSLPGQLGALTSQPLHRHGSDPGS

[5] = Plasma concentration in BALB/c mouse at 10 mg/kg, iv at 6 hrs administered as bolus dose; assay type: ADME, organism-based; design: dose 10 mg/kg, route intravenous
[6] = target: T1, Serine/threonine-protein kinase Chk1 (Homo sapiens, UniProt O14757)
T1 sequence (O14757 whole entry): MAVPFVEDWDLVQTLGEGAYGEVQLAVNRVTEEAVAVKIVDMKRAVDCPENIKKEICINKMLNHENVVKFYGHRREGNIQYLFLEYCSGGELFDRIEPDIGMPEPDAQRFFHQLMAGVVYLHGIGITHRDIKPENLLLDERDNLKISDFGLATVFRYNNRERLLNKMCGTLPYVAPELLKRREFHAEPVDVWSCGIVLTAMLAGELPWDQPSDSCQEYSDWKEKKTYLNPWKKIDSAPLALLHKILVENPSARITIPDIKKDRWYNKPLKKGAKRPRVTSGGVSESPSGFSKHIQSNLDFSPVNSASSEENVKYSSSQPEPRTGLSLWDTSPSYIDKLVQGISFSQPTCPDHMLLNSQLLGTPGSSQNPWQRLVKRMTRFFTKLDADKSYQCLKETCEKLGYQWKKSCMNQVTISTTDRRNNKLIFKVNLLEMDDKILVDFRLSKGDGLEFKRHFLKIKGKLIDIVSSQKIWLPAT

in vitro = settings: mouse, liver microsomes
HT-29 = assay: Antitumor activity against human HT-29 cells xenografted in athymic mouse assessed as tumor growth delay at 12.5 mg/kg, ip tid for 7 days (reference value: 6.9 1.5); assay type: functional; settings: route intraperitoneal
Mus musculus [7] = assay: Toxicity in athymic mouse xenografted with human HT-29 cells assessed as body weight loss at 12.5 mg/kg, ip tid for 7 days; assay type: organism-based; design: dose 12.5 mg/kg, route intraperitoneal; settings: in vivo, 168 h
hERG (KCNH2) = hERG (KCNH2) (Homo sapiens, UniProt Q12809); assay: Inhibition of human ERG overexpressed in HEK cells at 10 uM; assay type: cell-based, HEK293; settings: HEK cells overexpressing human ERG
Chain of hERG (KCNH2) (Q12809 whole entry): as the sequence (Q12809 whole entry) above

[8] = target: Cyclin-dependent kinase 1 (Homo sapiens, UniProt P06493)
Chain of Cyclin-dependent kinase 1 (P06493 whole entry): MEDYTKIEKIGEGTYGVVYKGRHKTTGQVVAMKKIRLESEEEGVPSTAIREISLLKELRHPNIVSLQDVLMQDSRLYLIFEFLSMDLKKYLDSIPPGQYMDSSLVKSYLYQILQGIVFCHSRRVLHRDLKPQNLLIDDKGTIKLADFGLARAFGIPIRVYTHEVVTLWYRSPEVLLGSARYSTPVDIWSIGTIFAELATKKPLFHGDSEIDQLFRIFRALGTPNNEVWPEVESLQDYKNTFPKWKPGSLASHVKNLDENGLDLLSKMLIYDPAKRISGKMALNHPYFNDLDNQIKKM

Mus musculus [9] = assay: Inhibition of CHK1 autophosphorylation in human SW620 cells xenografted in athymic nude mouse at 300 mg/kg, po measured at 6 hrs by Western blot analysis in presence of gemcitabine; assay type: functional, organism-based; design: dose 300 mg/kg; settings: SW-620
Mus musculus [10] = assay: Toxicity in athymic mouse xenografted with human HT-29 cells assessed as body weight loss at 75 mg/kg, po tid for 7 days; assay type: organism-based; design: dose 75 mg/kg, route oral; settings: in vivo, 168 h
[11] = Thermodynamic solubility of the compound in water; assay type: physicochemical
Kv4.3/KchIP2 = Kv4.3/KchIP2 (Homo sapiens, UniProt Q9NS61+Q9UK17); assay: Inhibition of human Kv4.3/KchIP2 at 10 uM; assay type: protein-complex assay
[12] = Aqueous solubility in phosphate buffer at pH 6.5; assay type: physicochemical
[13] = target: High affinity nerve growth factor receptor (Homo sapiens) (UniProt P04629); assay: Inhibition of human TRKA at 1 uM by radiometric assay in presence of ATP
[14] = target: Potassium voltage-gated channel subfamily A member 5 (Homo sapiens) (UniProt P22460); assay: Inhibition of human Kv1.5 at 10 uM
Kir2.1 = Kir2.1 (Homo sapiens, UniProt P63252); assay: Inhibition of human Kir2.1 at 10 uM
Mus musculus [15] = assay: Clearance in BALB/c mouse at 10 mg/kg, iv and po; assay type: ADME, organism-based; design: dose 10 mg/kg, route oral; settings: in vivo
Cav1.2 = Cav1.2 (Homo sapiens, UniProt Q13936); assay: Inhibition of human Cav1.2 at 10 uM
Mus musculus [16] = assay: Inhibition of CHK1 in human SW620 cells xenografted in athymic nude mouse at 300 mg/kg, po measured at 12 hrs by Western blot analysis in presence of gemcitabine; assay type: functional, organism-based; design: dose 300 mg/kg; settings: SW-620
Caco-2 = settings: human
Description: Permeability across apical to basolateral side in human Caco2 cells

KCNQ1/MINK (IKs) = KCNQ1/MINK (IKs) (Homo sapiens, UniProt P15382+P51787); assay: Inhibition of human KCNQ1/MINK at 10 uM; assay type: protein-complex assay
[17] = target: Ribosomal protein S6 kinase alpha-3 (Homo sapiens) (UniProt P51812); assay: Inhibition of human RSK2 at 1 uM by radiometric assay in presence of ATP
Chain of Ribosomal protein S6 kinase alpha-3 (Homo sapiens) (P51812 whole entry): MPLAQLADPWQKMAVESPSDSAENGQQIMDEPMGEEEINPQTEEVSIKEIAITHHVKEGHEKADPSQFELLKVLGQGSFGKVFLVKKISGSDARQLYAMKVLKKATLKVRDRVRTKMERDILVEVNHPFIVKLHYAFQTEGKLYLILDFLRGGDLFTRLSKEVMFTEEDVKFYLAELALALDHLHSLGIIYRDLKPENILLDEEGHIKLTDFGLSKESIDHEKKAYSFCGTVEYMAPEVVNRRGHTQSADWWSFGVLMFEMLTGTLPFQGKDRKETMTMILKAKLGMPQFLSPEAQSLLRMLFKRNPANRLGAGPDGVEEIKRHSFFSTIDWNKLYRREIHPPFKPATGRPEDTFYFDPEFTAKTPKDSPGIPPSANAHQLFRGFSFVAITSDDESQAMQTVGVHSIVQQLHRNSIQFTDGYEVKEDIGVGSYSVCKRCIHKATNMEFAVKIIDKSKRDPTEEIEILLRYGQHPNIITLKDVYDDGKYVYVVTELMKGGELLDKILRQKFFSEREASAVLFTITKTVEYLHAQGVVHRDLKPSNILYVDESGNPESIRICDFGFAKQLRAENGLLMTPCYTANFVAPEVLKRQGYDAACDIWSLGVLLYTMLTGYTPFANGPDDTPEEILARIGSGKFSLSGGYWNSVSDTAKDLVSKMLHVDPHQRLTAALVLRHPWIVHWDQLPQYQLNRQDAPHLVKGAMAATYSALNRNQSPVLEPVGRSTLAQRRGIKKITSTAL

[18] = target: Interleukin-1 receptor-associated kinase 1 (Homo sapiens) (UniProt P51617); assay: Inhibition of human IRAK1 at 1 uM by radiometric assay in presence of ATP
[19] = Toxicity in po dosed mouse; assay type: organism-based; settings: in vivo
[20] = target: Ribosomal protein S6 kinase alpha-1 (Homo sapiens) (UniProt Q15418); assay: Inhibition of human RSK1 at 1 uM by radiometric assay in presence of ATP
[21] = target: AMP-activated protein kinase, AMPK (Homo sapiens) (UniProt P54646+O43741+P54619+Q9UGJ0+Q9Y478+Q13131+Q9UGI9); assay: Inhibition of human AMPK at 1 uM by radiometric assay in presence of ATP; assay type: protein-complex assay
Plasma = assay: Plasma protein binding in human; assay type: ADME, cell-free
[22] = target: Serine/threonine-protein kinase BRSK1 (Homo sapiens) (UniProt Q8TDC3); assay: Inhibition of human BRSK1 at 1 uM by radiometric assay in presence of ATP
Chain of Serine/threonine-protein kinase BRSK1 (Homo sapiens) (Q8TDC3 whole entry): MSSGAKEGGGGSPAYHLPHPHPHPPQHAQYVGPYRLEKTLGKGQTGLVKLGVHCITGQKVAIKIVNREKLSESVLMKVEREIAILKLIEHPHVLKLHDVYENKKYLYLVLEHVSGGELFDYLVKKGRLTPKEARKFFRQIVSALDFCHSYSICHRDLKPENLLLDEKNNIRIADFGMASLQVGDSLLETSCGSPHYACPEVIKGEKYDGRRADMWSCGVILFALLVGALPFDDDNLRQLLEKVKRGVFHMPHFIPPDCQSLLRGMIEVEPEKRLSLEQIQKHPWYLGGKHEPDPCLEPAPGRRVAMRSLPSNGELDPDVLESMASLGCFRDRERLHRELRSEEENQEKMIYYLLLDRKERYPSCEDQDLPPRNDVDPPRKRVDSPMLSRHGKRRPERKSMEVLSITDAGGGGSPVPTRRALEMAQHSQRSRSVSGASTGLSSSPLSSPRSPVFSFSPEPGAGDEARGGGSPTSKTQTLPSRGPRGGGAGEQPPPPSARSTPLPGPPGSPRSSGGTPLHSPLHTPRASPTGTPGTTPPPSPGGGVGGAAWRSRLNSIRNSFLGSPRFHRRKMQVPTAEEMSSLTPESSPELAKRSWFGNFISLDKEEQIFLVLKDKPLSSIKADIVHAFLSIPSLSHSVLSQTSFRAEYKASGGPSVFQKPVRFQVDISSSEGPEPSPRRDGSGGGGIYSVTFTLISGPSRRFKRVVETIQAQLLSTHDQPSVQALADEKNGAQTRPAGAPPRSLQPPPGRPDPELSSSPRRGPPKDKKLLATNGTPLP

Mus musculus [23] = assay: Toxicity in athymic mouse xenografted with human Calu6 cells assessed as body weight loss at 75 mg/kg, po tid for 7 days; assay type: organism-based, Calu-6; design: dose 75 mg/kg, route oral; settings: in vivo, 168 h
[24] = target: Serine/threonine-protein kinase Chk2 (Homo sapiens, UniProt O96017)
Chain of Serine/threonine-protein kinase Chk2 (O96017 whole entry): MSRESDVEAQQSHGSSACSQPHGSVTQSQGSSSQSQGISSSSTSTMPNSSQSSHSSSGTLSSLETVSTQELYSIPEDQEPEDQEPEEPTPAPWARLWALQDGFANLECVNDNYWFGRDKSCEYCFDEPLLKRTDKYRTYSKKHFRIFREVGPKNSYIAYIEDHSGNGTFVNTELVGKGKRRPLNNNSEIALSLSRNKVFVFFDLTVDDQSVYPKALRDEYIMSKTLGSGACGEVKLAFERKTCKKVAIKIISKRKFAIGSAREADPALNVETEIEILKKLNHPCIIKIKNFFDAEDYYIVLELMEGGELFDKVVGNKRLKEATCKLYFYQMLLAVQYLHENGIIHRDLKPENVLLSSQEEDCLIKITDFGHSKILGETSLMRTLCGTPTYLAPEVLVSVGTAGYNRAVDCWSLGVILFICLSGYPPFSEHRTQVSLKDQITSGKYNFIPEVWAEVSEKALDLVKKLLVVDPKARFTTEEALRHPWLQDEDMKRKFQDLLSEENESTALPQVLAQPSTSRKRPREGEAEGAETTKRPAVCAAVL

Nav1.5 = Nav1.5 (Homo sapiens, UniProt Q14524); assay: Inhibition of human Nav1.5 at 10 uM
Mus musculus [25] = assay: Toxicity in athymic mouse xenografted with human SW620 cells assessed as body weight loss at 75 mg/kg, po tid for 4 days; assay type: organism-based, SW-620; design: dose 75 mg/kg, route oral; settings: in vivo, 96 h
[26] = Drug uptake in human SW620 cells xenografted in athymic nude mouse at 300 mg/kg, po measured at 6 to 12 hrs in presence of gemcitabine; assay type: ADME, organism-based, SW-620; design: dose 300 mg/kg, route oral; settings: in vivo
[27] = target: Potassium/sodium hyperpolarization-activated cyclic nucleotide-gated channel 4 (Homo sapiens) (UniProt Q9Y3Q4); assay: Inhibition of human HCN4 at 10 uM
Mus musculus [28] = assay: Volume of distribution at steady state in BALB/c mouse at 10 mg/kg, iv and po; assay type: ADME, organism-based; design: dose 10 mg/kg, route oral; settings: in vivo
Mus musculus [29] = assay: Oral bioavailability in BALB/c mouse at 10 mg/kg; assay type: ADME, organism-based; settings: in vivo
Mus musculus [30] = species on record: Mus musculus; settings: SW-620, 160 mg/kg
Mus musculus [31] = species on record: Mus musculus; settings: SW-620, 160 mg/kg; remark: listed apart in the source
[32] = Drug uptake in human SW620 cells xenografted in athymic nude mouse at 160 mg/kg, po measured at 6 to 12 hrs in presence of gemcitabine; assay type: ADME, organism-based, SW-620; design: dose 160 mg/kg, route oral; settings: in vivo

concentration at 6 h [1]: 6 nM
concentration at 1 h [2]: 1180 nM
concentration at 1 h [3]: 264 nM
concentration at 6 h [5]: 7 nM
IC50 [6]: 0.0063 µM
metabolised at 0.5 h (in vitro): 18%
Compound: COc1cc(Nc2cnc(C#N)c(O[C@@H]3CCN(C)C3)n2)ncc1-c1cnn(C)c1
IC50 [4]: 16 µM

Compound: CCc1c2c(nc3ccc(OC(=O)N4CCC(N5CCCCC5)CC4)cc13)-c1cc3c(c(=O)n1C2)COC(=O)[C@]3(O)CC [IRINOTECAN]
Time (HT-29): 6.4 days
Activity (Mus musculus [7]): Non-toxic

IC50 [6]: 0.0088 µM
Compound: COC(=O)c1cnc(Nc2cnc(C#N)c(O[C@@H]3CCNC3)n2)cc1N(C)C
IC50 [4]: 30 µM

IC50 [6]: < 0.001 µM
Compound: COc1cc(Nc2cnc(C#N)c(O[C@@H]3CCNC3)n2)ncc1-c1cnn(C)c1

IC50 [6]: 0.027 µM
Compound: CSc1cc(Nc2cnc(C#N)c(O[C@H](C)CN(C)C)n2)ncc1-c1cnn(C)c1
IC50 [4]: 8 µM

concentration at 6 h [1]: 6 nM
concentration at 1 h [2]: 833 nM
concentration at 1 h [3]: 439 nM
concentration at 6 h [5]: 7 nM
IC50 [6]: 0.011 µM
metabolised at 0.5 h (in vitro): 40%
Compound: C#Cc1cnc(Nc2cnc(C#N)c(O[C@H](C)CN(C)C)n2)cc1NC

Compound: CNc1cc(Nc2cnc(C#N)c(O[C@@H]3CCNC3)n2)ncc1-c1cnn(C)c1
inhibition at 10 µM (hERG (KCNH2)): 22%

concentration at 6 h [1]: 2 nM
concentration at 1 h [2]: 254 nM
concentration at 1 h [3]: 3 nM
concentration at 6 h [5]: 53 nM
metabolised at 0.5 h (in vitro): 12%
Compound: CNc1cc(Nc2cnc(C#N)c(O[C@H]3CCNC3)n2)ncc1-c1cnn(C)c1
inhibition at 10 µM (hERG (KCNH2)): 37%

Compound: COc1cc(Nc2cnc(C#N)c(O[C@H](C)CN(C)C)n2)ncc1-c1cnn(C)c1
IC50 [8]: > 10 µM
inhibition (Mus musculus [9]): Active
Activity (Mus musculus [10]): Non-toxic
Therm_solubility [11]: 70 µg/mL
concentration at 6 h [1]: 52 nM
inhibition at 10 µM (Kv4.3/KchIP2): < 25%
concentration at 1 h [2]: 1850 nM
solubility thermodynamic [12]: 6200 µg/mL (≈ 15.2 mM)
inhibition [13]: > 80%
concentration at 1 h [3]: 1120 nM
inhibition [14]: < 25%
inhibition at 10 µM (Kir2.1): < 25%
clearance (Mus musculus [15]): 0.125 L/h
inhibition at 10 µM (Cav1.2): < 25%
inhibition (Mus musculus [16]): Active
permeability (Caco-2): 29 ×10⁻⁶ cm/s
inhibition at 10 µM (KCNQ1/MINK (IKs)): < 25%
inhibition [17]: > 80%
inhibition [18]: > 80%
MTD [19]: > 300 mg/kg
inhibition [20]: > 80%
IC50 [4]: 5 µM
inhibition [21]: > 80%
PPB (Plasma): 82%
inhibition [22]: > 80%
concentration at 6 h [5]: 27 nM
Activity (Mus musculus [23]): Non-toxic
IC50 [6]: 0.0077 µM
IC50 [24]: > 10 µM
inhibition at 10 µM (Nav1.5): < 25%
metabolised at 0.5 h (in vitro): 38%
Activity (Mus musculus [25]): Non-toxic
Drug uptake [26]: Active
inhibition [27]: < 25%
Vdss (Mus musculus [28]): 0.113 L
F (Mus musculus [29]): 61%

IC50 [6]: 0.0029 µM
Compound: CNc1cc(Nc2cnc(C#N)c(O[C@H](C)CN(C)C)n2)ncc1C#CC(C)(C)O
inhibition at 10 µM (hERG (KCNH2)): 59%

Compound: CNc1cc(Nc2cnc(C#N)c(O[C@H](C)CN(C)C)n2)ncc1-c1cnn(C)c1
IC50 [8]: 10 µM
inhibition (Mus musculus [30]): inactive
Therm_solubility [11]: 100 µg/mL
concentration at 6 h [1]: 57 nM
inhibition (Mus musculus [31]): Active
concentration at 1 h [2]: 910 nM
solubility thermodynamic [12]: > 8000 µg/mL
concentration at 1 h [3]: 555 nM
CL (Mus musculus [15]): 0.132 L/h
permeability (Caco-2): 8.8 ×10⁻⁶ cm/s
MTD [19]: 160 mg/kg
IC50 [4]: 12 µM
PPB (Plasma): 70%
Drug uptake [32]: Active
concentration at 6 h [5]: 45 nM
IC50 [24]: 3.2 µM
metabolised at 0.5 h (in vitro): 30%
Vdss (Mus musculus [28]): 0.209 L
F (Mus musculus [29]): 48%
